Test results taken from patent publication US20080207614A1, “QUINAZOLINE DERIVATIVES FOR THE TREATMENT AND PREVENTION OF DIABETES AND OBESITY” (SK CHEMICALS CO., LTD., priority 2004, published 2008).

Test system: C2C12 muscle cells
Assay: Analysis of glucose absorption (2-deoxyglucose) in differentiated C2C12 muscle cells
Type: cell-based
Conditions: test materials 10 μM, times relative to control group
Procedure: C2C12 muscle cells were cultured in DMEM (Dulbecco's modified Eagle's medium) containing 10% bovine calf serum. When the cell density increased to about 85 to 90%, the culture medium was replaced with 1% bovine calf serum and cell differentiation was induced for 6 days. Completely differentiated cells were cultured for 3 hours with Krebs-Ringer buffer (KRB) containing 5 mM glucose. The test materials were added at a concentration of 10 μM. 30 minutes later, 0.2 μCi 2-deoxyglucose was added. KRB was removed 20 minutes later and the cells were washed for 3 times with cold PBS. The cells were lysed with 0.5N NaOH and counted using a radioactive counter.

Question: Which Glucose absorption does the source give for `COc1ccc(Nc2nc(-c3ccccc3)nc3ccccc23)cc1O` [Compound 84, 2-Methoxy-5-(2-phenylquinazolino-4-ylamino)phenol] here?
Answer: 1.0

Question: For `OCCCCCNc1nc(-c2ccccc2)nc2ccccc12` [Compound 85, 5-(2-Phenylquinazolino-4-ylamino)-pentane-1-ol], which Glucose absorption is on record?
Answer: 1.0

Question: How did the Glucose absorption turn out when `c1ccc(CNc2nc(-c3ccccc3)nc3ccccc23)cc1` [Compound 86, Benzyl-(2-phenylquinazolino-4-yl)-amine] was run?
Answer: 1.4

Question: How did the Glucose absorption turn out when `CC(Nc1nc(-c2ccccc2)nc2ccccc12)c1ccccc1` (stereo not shown) [Compound 87, (1-Phenylethyl)-(2-phenylquinazolino-4-yl)-amine] was run?
Answer: 1.0

Question: `Clc1ccc(CNc2nc(-c3ccccc3)nc3ccccc23)cc1` [Compound 88, (4-Chlorobenzyl)-(2-phenylquinazolino-4-yl)-amine] was tested. Which Glucose absorption did it give?
Answer: 1.1

Question: With `Clc1ccc(CNc2nc(-c3ccccc3)nc3ccccc23)cc1Cl` [Compound 89, (3,4-Dichlorobenzyl)-(2-phenylquinazolino-4-yl)-amine] as the compound, how does the Glucose absorption read?
Answer: 1.4

Question: Which Glucose absorption does the source give for `COc1cccc(CNc2nc(-c3ccccc3)nc3ccccc23)c1` [Compound 90, (3-Methoxybenzyl)-(2-phenylquinazolino-4-yl)-amine] here?
Answer: 1.4

Question: With `COc1ccccc1CNc1nc(-c2ccccc2)nc2ccccc12` [Compound 91, (2-Methoxybenzyl)-(2-phenylquinazolino-4-yl)-amine] as the compound, how does the Glucose absorption read?
Answer: 1.2

Question: Which Glucose absorption does the source give for `COc1cc(CNc2nc(-c3ccccc3)nc3ccccc23)cc(OC)c1` [Compound 92, (3,5-Dimethoxybenzyl)-(2-phenylquinazolino-4-yl)-amine] here?
Answer: 1.4

Question: `COc1cccc(CNc2nc(-c3ccccc3)nc3ccccc23)c1OC` [Compound 93, (2,3-Dimethoxybenzyl)-(2-phenylquinazolino-4-yl)-amine] was tested. Which Glucose absorption did it give?
Answer: 1.1

Question: `Fc1ccccc1CNc1nc(-c2ccccc2)nc2ccccc12` [Compound 94, (2-Fluorobenzyl)-(2-phenylquinazolino-4-yl)-amine] was tested. Which Glucose absorption did it give?
Answer: 1.3

Question: For `c1ccc(-c2nc(NC3CCCC3)c3ccccc3n2)cc1` [Compound 95, Cyclopentyl-(2-phenylquinazolino-4-yl)-amine], which Glucose absorption is on record?
Answer: 1.2

Question: Which Glucose absorption does the source give for `CCC(C)Nc1nc(-c2ccccc2)nc2ccccc12` (stereo not shown) [Compound 96, sec-Butyl-(2-phenylquinazolino-4-yl)-amine] here?
Answer: 1.3

Question: How did the Glucose absorption turn out when `C=CCNc1nc(-c2ccccc2)nc2ccccc12` [Compound 97, Allyl-(2-phenylquinazolino-4-yl)-amine] was run?
Answer: 1.0

Question: With `FC(F)(F)c1ccccc1CNc1nc(-c2ccccc2)nc2ccccc12` [Compound 98, (2-Phenylquinazolino-4-yl)-(2-trifluoromethylbenzyl)-amine] as the compound, how does the Glucose absorption read?
Answer: 1.2

Question: Which Glucose absorption does the source give for `CCCCCCCCCCCCCCCCNc1nc(-c2ccccc2)nc2ccccc12` [Compound 99, Hexadecyl-(2-phenylquinazolino-4-yl)-amine] here?
Answer: 1.4

Question: For `c1ccc(-c2nc(NCCN3CCCC3)c3ccccc3n2)cc1` [Compound 100, (2-Phenylquinazolino-4-yl)-(2-pyrrolidino-1-ylethyl)-amine], which Glucose absorption is on record?
Answer: 1.4

Question: Which Glucose absorption does the source give for `c1ccc(-c2nc(NCCc3ccccn3)c3ccccc3n2)cc1` [Compound 102, (2-Phenylquinazolino-4-yl)-(2-pyridino-2-ylethyl)-amine] here?
Answer: 1.2

Question: Which Glucose absorption does the source give for `CCC(COC)Nc1nc(-c2ccccc2)nc2ccccc12` (stereo not shown) [Compound 104, (1-Methoxymethylpropyl)-(2-phenylquinazolino-4-yl)-amine] here?
Answer: 1.0

Question: How did the Glucose absorption turn out when `c1ccc(CN2CCC(Nc3nc(-c4ccccc4)nc4ccccc34)CC2)cc1` [Compound 105, (1-Benzyl-piperidino-4-yl)-(2-phenylquinazolino-4-yl)-amine] was run?
Answer: 1.2

Question: How did the Glucose absorption turn out when `COc1ccc(CCNc2nc(-c3ccccc3)nc3ccccc23)cc1OC` [Compound 107, [2-(3,4-Dimethoxyphenyl)-ethyl]-(2-phenylquinazolino-4-yl)-amine] was run?
Answer: 0.4

Question: Which Glucose absorption does the source give for `CCN1CCCC1CNc1nc(-c2ccccc2)nc2ccccc12` (stereo not shown) [Compound 117, (1-Ethyl-pyrrolidino-2-ylmethyl)-(2-phenylquinazolino-4-yl)-amine] here?
Answer: 1.4

Question: For `COc1cccc(CCNc2nc(-c3ccccc3)nc3ccccc23)c1` [Compound 120, [2-(3-Methoxyphenyl)-ethyl]-(2-phenylquinazolino-4-yl)-amine], which Glucose absorption is on record?
Answer: 1.4

Question: How did the Glucose absorption turn out when `COc1ccc(OC)c(CCNc2nc(-c3ccccc3)nc3ccccc23)c1` [Compound 122, [2-(2,5-Dimethoxyphenyl)-ethyl]-(2-phenylquinazolino-4-yl)-amine] was run?
Answer: 1.3

Question: `COc1ccc(CCNc2nc(-c3ccccc3)nc3ccccc23)cc1` [Compound 124, [2-(4-Methoxyphenyl)-ethyl]-(2-phenylquinazolino-4-yl)-amine] was tested. Which Glucose absorption did it give?
Answer: 1.4

Question: Which Glucose absorption does the source give for `Clc1ccc(CCNc2nc(-c3ccccc3)nc3ccccc23)c(Cl)c1` [Compound 127, [2-(2,4-Dichlorophenyl)-ethyl]-(2-phenylquinazolino-4-yl)-amine] here?
Answer: 1.4

Question: `COc1cc(CNc2nc(-c3ccccc3)nc3ccccc23)cc(OC)c1OC` [Compound 129, (2-Phenylquinazolino-4-yl)-(3,4,5-trimethoxybenzyl)-amine] was tested. Which Glucose absorption did it give?
Answer: 1.3

Question: How did the Glucose absorption turn out when `c1ccc(-c2nc(NCC3CCCCC3)c3ccccc3n2)cc1` [Compound 132, Cyclohexylmethyl-(2-phenylquinazolino-4-yl)-amine] was run?
Answer: 1.3

Question: For `c1ccc(-c2nc(NCCC(c3ccccc3)c3ccccc3)c3ccccc3n2)cc1` [Compound 136, (3,3-Diphenylpropyl)-(2-phenylquinazolino-4-yl)-amine], which Glucose absorption is on record?
Answer: 1.3

Question: `c1ccc(-c2nc(NCc3ccncc3)c3ccccc3n2)cc1` [Compound 141, (2-Phenylquinazolino-4-yl)-pyridino-4-ylmethylamine] was tested. Which Glucose absorption did it give?
Answer: 2.1

Question: Which Glucose absorption does the source give for `OC(CNc1nc(-c2ccccc2)nc2ccccc12)c1ccccc1` (stereo not shown) [Compound 146, 1-Phenyl-2-(2-phenylquinazolino-4-ylamino)-ethanol] here?
Answer: 2.3

Question: How did the Glucose absorption turn out when `O=C1CCCN1CCCNc1nc(-c2ccccc2)nc2ccccc12` [Compound 150, 1-[3-(2-Phenylquinazolino-4-ylamino)-propyl]-pyrrolidino-2-one] was run?
Answer: 2.6

Question: `Oc1ccccc1CCNc1nc(-c2ccccc2)nc2ccccc12` [Compound 152, 2-[2-(2-Phenylquinazolino-4-ylamino)-ethyl]-phenol] was tested. Which Glucose absorption did it give?
Answer: 2.4

Question: With `COc1cccc(OC)c1CNc1nc(-c2ccccc2)nc2ccccc12` [Compound 154, (2,6-Dimethoxybenzyl)-(2-phenylquinazolino-4-yl)-amine] as the compound, how does the Glucose absorption read?
Answer: 2.5

Question: `c1ccc(-c2nc(NCCCN3CCOCC3)c3ccccc3n2)cc1` [Compound 156, (3-Morpholino-4-ylpropyl)-(2-phenylquinazolino-4-yl)-amine] was tested. Which Glucose absorption did it give?
Answer: 1.1

Question: With `CCCCN(CCO)c1nc(-c2ccccc2)nc2ccccc12` [Compound 157, 2-[Butyl-(2-phenylquinazolino-4-yl)-amino]-ethanol] as the compound, how does the Glucose absorption read?
Answer: 2.0

Question: How did the Glucose absorption turn out when `CN1CCN(CCNc2nc(-c3ccccc3)nc3ccccc23)CC1` [Compound 158, [2-(4-Methylpiperazino-1-yl)-ethyl]-(2-phenylquinazolino-4-yl)-amine] was run?
Answer: 2.0
